# Assays:
# [1] = tested on: L3-1Y/IgG2 resistant MKN45 cells; experiment: Cell viability in L3-1Y/IgG2 resistant MKN45 cells; type: cell-based; details: 72 hours, PD173074 10 uM, BGJ398 5 uM
# Procedure: To verify that the co-treatment with a FGFR inhibitor allows overcoming a L3-1Y/IgG2 resistance acquired by repeated treatment of L3-1Y/IgG2, L3-1Y/IgG2 resistant cells were prepared by treating L3-1Y/IgG2 to MKN45 gastric cancer cell line for at least 3 months, and used for the following experiment. The L3-1Y/IgG2 resistant cells were prepared as follows: MKN45 cells (JCRB, JCRB0254) were treated with L3-1Y/IgG2, where the concentration of treated L3-1Y/IgG2 was increased from 1 ug/ml to 10 ug/ml, until the resistance is acquired. To verify the acquirement of resistance to L3-1Y/IgG2, the resistance acquired clones were cultured with or without L3-1Y/IgG2 treatment, and at 72 hours after the treatment, the cell number was measured by CellTiter Glo assay (Promega, G7573), referring to the above example,
# The synergistic effect of co-treatment of a FGFR inhibitor and L3-1Y/IgG2 was verified as follows. The prepared L3-1Y/IgG2 resistant MKN45 cells were seeded at the amount of 5,000 cells/well on 96 well plate to which RPMI1640 medium (GIBCO) supplemented with 10% FBS is added, and incubated overnight at 37° C. Next day (24 hours after), the incubated cells were treated with L3-1Y/IgG2 alone or together with FGFR inhibitor, PD173074 or BGJ398. For the treatment of L3-1Y/IgG2 only, the concentration of L3-1Y/IgG2 was 0 ug/ml, 0.016 ug/ml, 0.08 ug/ml, 0.4 ug/ml, or 2 ug/ml, and for the co-treatment, the concentration of the FGFR inhibitor was fixed and the concentration of L3-1Y/IgG2 was 0 ug/ml, 0.016 ug/ml, 0.08 ug/ml, 0.4 ug/ml, or 2 ug/ml. The concentration of the FGFR inhibitor was fixed at 10 uM for PD173074 and 5 uM for BGJ398.
# (§1) At 72 hours after the single treatment or the co-treatment, 100 uL of CellTiter Glo solution (Promega, G7572) was added to each well, and left for 30 minutes at room temperature. The cell number was counted by emission signal, and the emission signal was recorded using Envision 2104 Multi-label Reader (Perkin Elmer).
# [2] = tested on: L3-1Y/IgG2 resistant EBC1 cells; experiment: Cell viability in L3-1Y/IgG2 resistant EBC1 cells; type: cell-based; details: 72 hours, BGJ398 5 uM
# Procedure: To verify that the co-treatment with a FGFR inhibitor allows overcoming a L3-1Y/IgG2 resistance acquired by repeated treatment of L3-1Y/IgG2, L3-1Y/IgG2 resistant cells were prepared by treating L3-1Y/IgG2 to EBC1 lung cancer cell line for at least 3 months, and used for the following experiment. The EBC1 lung cancer cell line acquiring the resistant to L3-1Y/IgG2 was prepared referring to Example 4.
# The synergistic effect of co-treatment of a FGFR inhibitor and L3-1Y/IgG2 was verified as follows. The prepared L3-1Y/IgG2 resistant EBC1 cells were seeded at the amount of 5,000 cells/well on a 96 well plate to which RPMI1640 medium (GIBCO) supplemented with 10% FBS is added, and incubated overnight at 37° C. Next day (24 hours after), the incubated cells were treated with L3-1Y/IgG2 alone or together with FGFR inhibitor, BGJ398. […]
# as §1
# [3] = tested on: MKN45 gastric cancer cells; experiment: Tumor xenograft model of MKN45 gastric cancer cell line; type: in vivo, BALB/c nude mice; details: 21st day after treatment vs vehicle, BGJ398 10 mg/kg P.O. once a day, L3-1Y/IgG2 1 mg/kg I.V. once a week
# Procedure: To verify the in vivo effect of the co-administration on tumor growth, a tumor xenograft model was prepared using male 5-6 week-old BALB/c nude mice (Pharmalegacy, China). The mice were adapted at least one week before inoculation of tumor cells.
# Then, the mice were anesthetized with 1-2% isofurane, and MKN45 gastric cancer cells (JCRB, JCRB0254) were subcutaneously injected into right flank of the mice at the amount of 5×10^6 cells/each mouse. 7 days after, when the average size of tumor reaches 50 mm^3 or more, the mice were grouped into the following groups: a group treated with BGJ398 (10 mg/kg P.O., once a day), a group treated with L3-1Y/IgG2 (1 mg/kg I.V., once a week), a group co-treated with L3-1Y/IgG2 (1 mg/kg, I.V., once a week) and BGJ398 (10 mg/kg, P.O., once a day), and a group (control) treated with vehicle (PBS 0.2 ml, I.V., once a week). Each group consisted of 10 mice.
# The experiment was performed for 4 weeks in total, and tumor size and body weight of the mice were measured twice a week. The tumor volume (V) was calculated by the following formula: V(mm^3)={length of long axis(mm)×(length of short axis(mm))^2}/2.
# [4] = tested on: MKN45 gastric cancer cells; experiment: Cell viability (CellTiter Glo) in MKN45 gastric cancer cell line; type: cell-based; details: for cell growth inhibition: MKN45, 72 hours, L3-1Y/IgG2 0-2 ug/ml, PD173074 fixed at 10 uM
# Procedure: (§2) In particular, RPMI1640 medium (GIBCO) containing 10% FBS was put in a 96 well plate. MKN45 gastric cancer cells (JCRB, JCRB0254) were seeded thereon in the amount of 5,000 cells/well, and incubated overnight at 37° C. After 24 hours (the next day), the incubated cells were treated with L3-1Y/IgG2 (Reference Example 1) alone, or co-treated with L3-1Y/IgG2 and a FGFR inhibitor, PD173074. For the single treatment of L3-1Y/IgG2 alone, the concentration of L3-1Y/IgG2 was 0 ug (microgram)/ml, 0.016 ug/ml, 0.08 ug/ml, 0.4 ug/ml, or 2 ug/ml, and for the co-treatment of L3-1Y/IgG2 and PD173074, the concentration of PD173074 was fixed at 10 uM (micromole) which is a concentration of IC20 in MKN45 cell line, and the concentration of L3-1Y/IgG2 was 0 ug/ml, 0.016 ug/ml, 0.08 ug/ml, 0.4 ug/ml, or 2 ug/ml.
# as §1, with “uL (microliter)” for “uL”
# HT29 colon cancer cells = experiment: Cell viability (CellTiter Glo) in HT29 colon cancer cell line; type: cell-based; details: 72 hours, L3-1Y/IgG2 0-2 ug/ml, PD173074 fixed at 5 uM
# Procedure: as §2, with “FBS were” for “FBS was”, “in” for “in a”, “plate. HT29 colon” for “plate. MKN45 gastric”, “cells (ATCC, HTB-38)” for “cells (JCRB, JCRB0254)”, “0 ug/ml,” for “0 ug (microgram)/ml,”, “at 5 uM,” for “at 10 uM (micromole) which is a concentration of IC20 in MKN45 cell line,”
# as §1
# EBC1 lung cancer cells = experiment: Cell viability (CellTiter Glo) in EBC1 lung cancer cell line; type: cell-based; details: 72 hours, L3-1Y/IgG2 0-2 ug/ml, PD173074 10 uM or BGJ398 5 uM
# Procedure: In particular, RPMI1640 medium (GIBCO) containing 10% FBS were put in 96 well plate. EBC1 lung cancer cells (JCRB, JCRB0820) were seeded thereon in the amount of 5,000 cells/well, and incubated overnight at 37° C. After 24 hours (the next day), the incubated cells were treated with L3-1Y/IgG2 (Reference Example 1) alone, or co-treated with L3-1Y/IgG2 and a FGFR inhibitor, PD173074 or BGJ398. For the single treatment of L3-1Y/IgG2 alone, the concentration of L3-1Y/IgG2 was 0 ug/ml, 0.016 ug/ml, 0.08 ug/ml, 0.4 ug/ml, or 2 ug/ml, and for the co-treatment of L3-1Y/IgG2 and PD173074 or BGJ398, the concentration of PD173074 was fixed at 10 uM for PD173074 and 5 uM for BGJ398, and the concentration of L3-1Y/IgG2 was 0 ug/ml, 0.016 ug/ml, 0.08 ug/ml, 0.4 ug/ml, or 2 ug/ml.
# as §1
Molecule,cancer cell growth inhibitory effect [1],cancer cell growth inhibitory effect [2],"tumor inhibition rate, At d21:TV [3]","IC20 ([4]; Homo sapiens, MKN-45, read-out: concentration of IC20 in MKN45 cell line)",cell growth inhibition [4],cell growth inhibiting effect (HT29 colon cancer cells),cell growth inhibition (EBC1 lung cancer cells)
"CCN1CCN(c2ccc(Nc3cc(N(C)C(=O)Nc4c(Cl)c(OC)cc(OC)c4Cl)ncn3)cc2)CC1 [BGJ398, 3-(2,6-dichloro-3,5-dimethoxyphenyl)-1-(6-(4-(4-ethylpiperazin-1-yl)phenylamino)pyrimidin-4-yl)-1-methylurea, reference compound]",not obtained,not obtained,1.3%,,,,
"CCN(CC)CCCCNc1ncc2cc(-c3cc(OC)cc(OC)c3)c(NC(=O)NC(C)(C)C)nc2n1 [PD173074, N-[2-[[4-(Diethylamino)butyl]amino]-6-(3,5-dimethoxyphenyl)pyrido[2,3-d]pyrimidin-7-yl]-N′-(1,1-dimethylethyl)urea]",not obtained,,,10 µM,no significant effect on cell growth,,
"L3-1Y/IgG2: anti-c-Met antibody: huAbF46-H4-A1 heavy chain variable region, human IgG2 hinge and constant region, kappa light chain (antibody) heavy: EVQLVESGGGLVQPGGSLRLSCAASGFTFTDYYMSWVRQAPGKGLEWLGFIRNKANGYTTEYSASVKGRFTISRDNSKNTLYLQMNSLRAEDTAVYYCARDNWFAYWGQGTLVTVSSASTKGPSVFPLAPCSRSTSESTAALGCLVKDYFPEPVTVSWNSGALTSGVHTFPAVLQSSGLYSLSSVVTVPSSNFGTQTYTCNVDHKPSNTKVDKTVERKCCVECPPCPAPPVAGPSVFLFPPKPKDTLMISRTPEVTCVVVDVSHEDPEVQFNWYVDGVEVHNAKTKPREEQFNSTFRVVSVLTVVHQDWLNGKEYKCKVSNKGLPAPIEKTISKTKGQPREPQVYTLPPSREEMTKNQVSLTCLVKGFYPSDIAVEWESNGQPENNYKTTPPMLDSDGSFFLYSKLTVDKSRWQQGNVFSCSVMHEALHNHYTQKSLSLSPGK light: DIQMTQSPSSLSASVGDRVTITCKSSQSLLASGNQNNYLAWYQQKPGKAPKMLIIWASTRVSGVPSRFSGSGSGTDFTLTISSLQPEDFATYYCQQSYSRPYTFGQGTKVEIKRTVAAPSVFIFPPSDEQLKSGTASVVCLLNNFYPREAKVQWKVDNALQSGNSQESVTEQDSKDSTYSLSSTLTLSKADYEKHKVYACEVTHQGLSSPVTKSFNRGEC",not obtained,not obtained,27.8%,,cell growth inhibition is observed,not observed,cell growth inhibiting effect is observed

# Reference: US9192666B2, “Method of treating cancer using anti-c-Met antibody and FGFR inhibitor combination therapy” (Samsung Electronics Co., Ltd., priority 2013, dated 2015)
